The values below come from ChEMBL document CHEMBL4699456 (Bioorg Med Chem Lett, 2020).

Common to all, as to type: ADME, organism-based
Data set [1] in a line: Volume of distribution at steady state in BALB/c mouse at 2 mg/kg, iv. The note with it: in vivo, read-out: Vdss.
Data set [2] in a line: Cmax in BALB/c mouse at 10 mg/kg, po. Set-up: route oral, dose 10 mg/kg. As to conditions: in vivo.
The nature of data set [3]: AUC in BALB/c mouse at 10 mg/kg, po. Set-up: dose 10 mg/kg. As to conditions: in vivo.
Data set [4] in a line: Oral bioavailability in BALB/c mouse at 10 mg/kg. As to conditions: in vivo.

The Cmax is the maximum level reached in the sampled fluid or tissue. Usually AUC stands for concentration integrated over time. Higher therefore signals high exposure. Turning to `O=C(O)[C@H]1CC[C@H](C(=O)N2CC[C@](c3ccc(C(OCc4c(F)cccc4F)(C(F)(F)F)C(F)(F)F)cc3)(S(=O)(=O)c3ccc(F)cc3)C2)CC1`, in data set [1], the Vd turned out to be 1.3 L/kg. Moreover, the Cmax in data set [2] came out at 2.1 µM. Besides, the AUC in data set [3] worked out at 11.3 µM·h. The bioavailability in data set [4] worked out at 56%.

Regarding `O=C(O)[C@H]1CC[C@H](C(=O)N2CC[C@](c3ccc(C(OCC4CCCCC4)(C(F)(F)F)C(F)(F)F)cc3)(S(=O)(=O)c3ccc(F)cc3)C2)CC1`, the Vd in data set [1] came out at 1.7 L/kg. The molecule also returned a Cmax in data set [2] of 4.9 µM. In data set [3], this molecule displayed an AUC of 36.8 µM·h. For the same molecule, in data set [4], the bioavailability was 101%.
